Data published in ChEMBL document CHEMBL5223126, “Development of selective FGFR1 degraders using a Rapid synthesis of proteolysis targeting Chimera (Rapid-TAC) platform” (Bioorg Med Chem Lett, 2022).
The source made the active and inactive calls. The calls are words filed in the database; no cut-off is given here.

What was measured:
[1] = molecular target: von Hippel-Lindau disease tumor suppressor/Fibroblast growth factor receptor 1 (Homo sapiens) (UniProt P11362+P40337); test: PROTAC activity at FGFR1/VHL in human MCF7 cells assessed as FGFR1 degradation at 100 nM incubated for 6 hrs by Western blot analysis; format: cell-based
[2] = molecular target: T1, Protein cereblon/Fibroblast growth factor receptor 1 (Homo sapiens) (UniProt P11362+Q96SW2); test: PROTAC activity at FGFR1/CRBN in human MCF7 cells assessed as FGFR1 degradation at 0.1 to 10 uM incubated for 6 hrs by Western blot analysis; format: cell-based; conditions: dose 0.1-10 µM
[3] = molecular target: T1, Protein cereblon/Fibroblast growth factor receptor 1 (Homo sapiens); test: PROTAC activity at FGFR1/CRBN in human DMS-114 cells assessed as FGFR1 degradation at 0.1 to 10 uM incubated for 6 hrs by Western blot analysis; format: cell-based; conditions: dose 0.1-10 µM
[4] = molecular target: T1, Protein cereblon/Fibroblast growth factor receptor 1 (Homo sapiens); test: PROTAC activity at FGFR1/CRBN in human NCI-H1581 cells assessed as FGFR1 degradation at 0.1 to 10 uM incubated for 6 hrs by Western blot analysis; format: cell-based; conditions: dose 0.1-10 µM
[5] = molecular target: Protein cereblon/Fibroblast growth factor receptor 3 (Homo sapiens) (UniProt P22607+Q96SW2); test: PROTAC activity at FGFR3/CRBN in human MCF7 cells assessed as FGFR3 degradation at 0.1 to 10 uM incubated for 6 hrs by Western blot analysis; format: cell-based; conditions: dose 0.1-10 µM
[6] = molecular target: Protein cereblon/Fibroblast growth factor receptor 2 (Homo sapiens) (UniProt P21802+Q96SW2); test: PROTAC activity at FGFR2/CRBN in human MCF7 cells assessed as FGFR2 degradation at 0.1 to 10 uM incubated for 6 hrs by Western blot analysis; format: cell-based; conditions: dose 0.1-10 µM
[7] = molecular target: Protein cereblon/Fibroblast growth factor receptor 4 (Homo sapiens) (UniProt P22455+Q96SW2); test: PROTAC activity at FGFR4/CRBN in human MCF7 cells assessed as FGFR4 degradation at 0.1 to 10 uM incubated for 6 hrs by Western blot analysis; format: cell-based; conditions: dose 0.1-10 µM
[8] = molecular target: T1, Protein cereblon/Fibroblast growth factor receptor 1 (Homo sapiens); test: PROTAC activity at FGFR1/CRBN in human MCF7 cells assessed as FGFR1 degradation at 100 nM incubated for 6 hrs by Western blot analysis; format: cell-based
[9] = tested on: NCI-H1581; test: Antiproliferative activity against human NCI-H1581 cells assessed as inhibition of cell growth incubated for 120 hrs by MTT assay; format: functional, cell-based; conditions: NCI-H1581, 120 h
[10] = tested on: DMS-114; test: Antiproliferative activity against human DMS-114 cells assessed as inhibition of cell growth incubated for 120 hrs by MTT assay; format: functional, cell-based; conditions: DMS-114, 120 h

Chain of Protein cereblon/Fibroblast growth factor receptor 2 (Homo sapiens) (P21802 22-821 limits assumed): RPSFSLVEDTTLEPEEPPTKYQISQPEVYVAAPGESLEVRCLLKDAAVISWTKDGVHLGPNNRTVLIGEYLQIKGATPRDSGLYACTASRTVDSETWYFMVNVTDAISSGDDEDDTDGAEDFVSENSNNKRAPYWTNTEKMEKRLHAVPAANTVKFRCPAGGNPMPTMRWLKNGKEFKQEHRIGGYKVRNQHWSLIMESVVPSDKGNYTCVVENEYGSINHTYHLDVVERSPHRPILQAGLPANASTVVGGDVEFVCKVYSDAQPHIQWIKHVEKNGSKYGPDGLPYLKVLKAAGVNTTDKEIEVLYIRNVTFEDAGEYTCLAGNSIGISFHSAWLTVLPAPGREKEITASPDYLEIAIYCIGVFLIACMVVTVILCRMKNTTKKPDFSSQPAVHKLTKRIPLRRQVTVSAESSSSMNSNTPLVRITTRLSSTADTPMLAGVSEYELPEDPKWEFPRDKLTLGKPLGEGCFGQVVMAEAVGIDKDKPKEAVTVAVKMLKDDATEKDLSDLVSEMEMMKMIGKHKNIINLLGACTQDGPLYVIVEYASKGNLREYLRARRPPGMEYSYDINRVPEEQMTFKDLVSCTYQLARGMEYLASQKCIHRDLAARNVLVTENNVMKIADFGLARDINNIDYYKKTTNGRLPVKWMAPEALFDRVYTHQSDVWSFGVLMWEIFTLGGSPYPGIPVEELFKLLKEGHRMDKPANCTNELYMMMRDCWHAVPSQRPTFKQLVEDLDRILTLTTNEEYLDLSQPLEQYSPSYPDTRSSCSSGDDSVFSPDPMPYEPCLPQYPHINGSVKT
Chain of Protein cereblon/Fibroblast growth factor receptor 2 (Homo sapiens) (Q96SW2 whole entry partner): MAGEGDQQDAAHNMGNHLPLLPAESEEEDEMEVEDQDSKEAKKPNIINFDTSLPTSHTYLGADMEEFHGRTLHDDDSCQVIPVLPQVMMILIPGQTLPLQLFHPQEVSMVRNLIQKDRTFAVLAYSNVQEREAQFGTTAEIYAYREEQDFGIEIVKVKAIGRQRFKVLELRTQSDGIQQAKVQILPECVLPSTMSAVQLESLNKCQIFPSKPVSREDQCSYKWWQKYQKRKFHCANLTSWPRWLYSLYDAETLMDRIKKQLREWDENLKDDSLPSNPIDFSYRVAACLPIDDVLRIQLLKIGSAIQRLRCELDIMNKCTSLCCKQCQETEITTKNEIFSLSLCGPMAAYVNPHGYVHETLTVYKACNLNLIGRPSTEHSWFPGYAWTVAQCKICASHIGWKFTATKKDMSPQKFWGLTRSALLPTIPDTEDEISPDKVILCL
Chain of Protein cereblon/Fibroblast growth factor receptor 4 (Homo sapiens) (P22455 whole entry, looked up): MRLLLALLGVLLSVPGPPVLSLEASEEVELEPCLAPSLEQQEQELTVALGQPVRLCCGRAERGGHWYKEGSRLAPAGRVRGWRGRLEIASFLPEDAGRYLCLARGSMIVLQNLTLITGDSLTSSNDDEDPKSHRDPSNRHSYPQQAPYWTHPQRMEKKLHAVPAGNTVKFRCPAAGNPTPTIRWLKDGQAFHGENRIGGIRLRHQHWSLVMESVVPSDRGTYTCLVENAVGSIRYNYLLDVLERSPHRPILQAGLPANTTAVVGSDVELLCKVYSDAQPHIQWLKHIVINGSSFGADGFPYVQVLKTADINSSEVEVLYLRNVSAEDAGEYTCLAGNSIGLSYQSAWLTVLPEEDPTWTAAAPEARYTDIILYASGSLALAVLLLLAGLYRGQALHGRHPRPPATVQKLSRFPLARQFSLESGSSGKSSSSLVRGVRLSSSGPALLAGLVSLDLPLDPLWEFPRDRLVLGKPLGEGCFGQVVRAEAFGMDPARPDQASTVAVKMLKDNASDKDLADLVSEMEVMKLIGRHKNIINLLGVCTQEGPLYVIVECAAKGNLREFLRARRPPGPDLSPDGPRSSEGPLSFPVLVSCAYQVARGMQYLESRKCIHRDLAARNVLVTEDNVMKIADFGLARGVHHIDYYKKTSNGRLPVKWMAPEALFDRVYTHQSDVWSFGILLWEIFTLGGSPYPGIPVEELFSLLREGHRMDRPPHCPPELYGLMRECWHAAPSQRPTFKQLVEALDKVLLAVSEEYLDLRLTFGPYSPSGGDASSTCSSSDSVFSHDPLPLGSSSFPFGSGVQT
Chain of Protein cereblon/Fibroblast growth factor receptor 4 (Homo sapiens) (Q96SW2 whole entry, looked up): as the sequence (Q96SW2 whole entry partner) above
T1 sequence (P11362 whole entry, looked up): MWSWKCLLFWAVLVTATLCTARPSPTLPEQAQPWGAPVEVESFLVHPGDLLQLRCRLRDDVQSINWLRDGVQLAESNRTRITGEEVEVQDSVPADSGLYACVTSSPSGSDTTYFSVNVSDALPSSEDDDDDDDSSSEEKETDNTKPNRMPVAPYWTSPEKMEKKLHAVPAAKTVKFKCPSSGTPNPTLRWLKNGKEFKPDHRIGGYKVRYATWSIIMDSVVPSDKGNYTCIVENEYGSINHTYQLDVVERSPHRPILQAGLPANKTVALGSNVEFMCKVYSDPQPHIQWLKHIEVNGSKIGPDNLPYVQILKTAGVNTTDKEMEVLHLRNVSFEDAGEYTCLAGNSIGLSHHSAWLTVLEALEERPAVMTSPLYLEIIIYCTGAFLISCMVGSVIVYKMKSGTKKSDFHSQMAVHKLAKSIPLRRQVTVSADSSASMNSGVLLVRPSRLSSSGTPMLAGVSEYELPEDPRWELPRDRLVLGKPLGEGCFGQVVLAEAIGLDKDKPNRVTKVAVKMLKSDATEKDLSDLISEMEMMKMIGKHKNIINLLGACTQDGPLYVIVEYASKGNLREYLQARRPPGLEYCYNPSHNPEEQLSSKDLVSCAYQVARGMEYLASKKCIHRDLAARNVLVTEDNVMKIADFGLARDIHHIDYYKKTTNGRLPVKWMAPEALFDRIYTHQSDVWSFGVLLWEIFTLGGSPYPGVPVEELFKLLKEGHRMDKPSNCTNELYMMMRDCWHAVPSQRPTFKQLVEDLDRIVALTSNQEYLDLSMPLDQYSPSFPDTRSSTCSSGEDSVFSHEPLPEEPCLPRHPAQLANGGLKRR
T1 sequence (Q96SW2 whole entry, looked up): as the sequence (Q96SW2 whole entry partner) above
Chain of Protein cereblon/Fibroblast growth factor receptor 3 (Homo sapiens) (P22607 whole entry, looked up): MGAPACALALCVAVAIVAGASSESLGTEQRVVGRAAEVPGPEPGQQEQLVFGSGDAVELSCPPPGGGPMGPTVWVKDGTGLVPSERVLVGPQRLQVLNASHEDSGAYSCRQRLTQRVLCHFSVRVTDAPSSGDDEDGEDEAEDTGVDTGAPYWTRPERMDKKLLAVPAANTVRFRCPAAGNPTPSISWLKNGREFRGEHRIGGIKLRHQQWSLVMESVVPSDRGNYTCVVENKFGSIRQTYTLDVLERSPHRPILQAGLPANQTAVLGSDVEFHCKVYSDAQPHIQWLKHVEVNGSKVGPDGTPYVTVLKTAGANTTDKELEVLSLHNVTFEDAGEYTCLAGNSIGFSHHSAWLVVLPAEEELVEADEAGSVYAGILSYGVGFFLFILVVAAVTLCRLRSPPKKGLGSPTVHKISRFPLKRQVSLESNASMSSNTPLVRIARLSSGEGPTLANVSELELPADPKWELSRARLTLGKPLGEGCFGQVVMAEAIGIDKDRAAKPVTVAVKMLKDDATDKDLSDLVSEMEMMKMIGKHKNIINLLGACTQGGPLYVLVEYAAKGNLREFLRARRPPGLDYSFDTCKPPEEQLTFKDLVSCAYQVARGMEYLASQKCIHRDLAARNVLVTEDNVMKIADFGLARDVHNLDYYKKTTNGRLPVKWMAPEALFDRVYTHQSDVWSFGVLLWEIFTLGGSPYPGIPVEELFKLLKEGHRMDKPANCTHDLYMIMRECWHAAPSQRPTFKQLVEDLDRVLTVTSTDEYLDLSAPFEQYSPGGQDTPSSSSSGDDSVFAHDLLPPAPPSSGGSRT
Chain of Protein cereblon/Fibroblast growth factor receptor 3 (Homo sapiens) (Q96SW2 whole entry, looked up): as the sequence (Q96SW2 whole entry partner) above
Chain of von Hippel-Lindau disease tumor suppressor/Fibroblast growth factor receptor 1 (Homo sapiens) (P11362 22-822 limits assumed): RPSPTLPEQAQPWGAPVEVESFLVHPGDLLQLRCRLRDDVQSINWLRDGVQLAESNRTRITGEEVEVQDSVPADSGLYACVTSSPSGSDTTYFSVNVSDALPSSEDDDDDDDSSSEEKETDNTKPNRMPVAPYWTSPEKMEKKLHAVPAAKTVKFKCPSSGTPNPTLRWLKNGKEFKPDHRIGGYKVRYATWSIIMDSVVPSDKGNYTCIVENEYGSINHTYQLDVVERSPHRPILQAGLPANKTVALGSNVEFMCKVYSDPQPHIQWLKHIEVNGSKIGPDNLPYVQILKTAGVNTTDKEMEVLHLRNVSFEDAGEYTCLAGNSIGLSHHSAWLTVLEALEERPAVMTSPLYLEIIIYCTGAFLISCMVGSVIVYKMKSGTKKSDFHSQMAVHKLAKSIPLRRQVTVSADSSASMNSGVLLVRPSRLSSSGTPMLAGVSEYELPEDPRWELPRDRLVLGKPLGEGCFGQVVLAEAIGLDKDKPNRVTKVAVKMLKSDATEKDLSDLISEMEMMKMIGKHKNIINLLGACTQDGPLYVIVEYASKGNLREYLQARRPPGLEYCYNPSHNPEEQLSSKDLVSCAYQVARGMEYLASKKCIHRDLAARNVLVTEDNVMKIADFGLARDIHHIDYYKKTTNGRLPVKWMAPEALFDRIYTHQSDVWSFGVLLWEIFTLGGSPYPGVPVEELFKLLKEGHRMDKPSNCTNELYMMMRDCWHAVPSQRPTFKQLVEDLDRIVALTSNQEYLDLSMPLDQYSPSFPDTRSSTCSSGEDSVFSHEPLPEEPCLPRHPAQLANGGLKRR
Chain of von Hippel-Lindau disease tumor suppressor/Fibroblast growth factor receptor 1 (Homo sapiens) (P40337 whole entry partner): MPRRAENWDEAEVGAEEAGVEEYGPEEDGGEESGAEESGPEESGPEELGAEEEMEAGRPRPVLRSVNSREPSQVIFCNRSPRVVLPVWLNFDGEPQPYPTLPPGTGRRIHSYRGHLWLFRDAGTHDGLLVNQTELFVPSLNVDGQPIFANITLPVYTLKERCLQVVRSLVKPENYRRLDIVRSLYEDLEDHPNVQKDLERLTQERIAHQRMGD

With `COc1cc(CCc2cc(NC(=O)c3ccc(N4C[C@@H](C)N(CC(=O)N/N=C/c5ccc(OCCOCCOCCOCCOCC(=O)N[C@H](C(=O)N6C[C@H](O)C[C@H]6C(=O)N[C@@H](C)c6ccc(-c7scnc7C)cc6)C(C)(C)C)cc5)[C@@H](C)C4)cc3)n[nH]2)cc(OC)c1` the Activity [1] was “Active”.
`COc1cc(CCc2cc(NC(=O)c3ccc(N4C[C@@H](C)N(CC(=O)N/N=C\c5ccc(OCCCCC(=O)N[C@H](C(=O)N6C[C@H](O)C[C@H]6C(=O)N[C@@H](C)c6ccc(-c7scnc7C)cc6)C(C)(C)C)cc5)[C@@H](C)C4)cc3)n[nH]2)cc(OC)c1` was tested, and the Activity [1] was “Active”.
With `COc1cc(CCc2cc(NC(=O)c3ccc(N4C[C@@H](C)N(CC(=O)NCCc5ccc(OCCOCCOCC(=O)NC#Cc6cccc7c6CN(C6CCC(=O)NC6=O)C7=O)cc5)[C@@H](C)C4)cc3)n[nH]2)cc(OC)c1` (stereo not given in full) the Activity [2] was “Active”, the Activity [3] was “inactive” and the Activity [4] was “inactive”.
`COc1cc(CCc2cc(NC(=O)c3ccc(N4C[C@@H](C)N(CC(=O)N/N=C/c5ccc(OCCOCCOCCOCCOCCOCC(=O)NCC#Cc6cccc7c6CN(C6CCC(=O)NC6=O)C7=O)cc5)[C@@H](C)C4)cc3)n[nH]2)cc(OC)c1` (stereo not given in full) was tested, and the Activity [2] was “Active”, the Activity [5] was “inactive” and the Activity [6] was “inactive”. For the same compound, the Activity [7] was “inactive”.
For `COc1cc(CCc2cc(NC(=O)c3ccc(N4C[C@@H](C)N(CC(=O)N/N=C/c5ccc(OCCOCCOCC(=O)NCC#Cc6cccc7c6CN(C6CCC(=O)NC6=O)C7=O)cc5)[C@@H](C)C4)cc3)n[nH]2)cc(OC)c1` (stereo not given in full), the Activity [8] was “Active”.
With `COc1cc(CCc2cc(NC(=O)c3ccc(N4C[C@@H](C)N(CC(=O)N/N=C/c5ccc(OCCCCC(=O)NCC#Cc6cccc7c6CN(C6CCC(=O)NC6=O)C7=O)cc5)[C@@H](C)C4)cc3)n[nH]2)cc(OC)c1` (stereo not given in full) the Activity [8] was “Active”.
`COc1cc(CCc2cc(NC(=O)c3ccc(N4C[C@@H](C)N(CC(=O)N/N=C/c5ccc(OCCOCCOCCOCC(=O)NCC#Cc6cccc7c6CN(C6CCC(=O)NC6=O)C7=O)cc5)[C@@H](C)C4)cc3)n[nH]2)cc(OC)c1` (stereo not given in full) was tested, and the Activity [2] was “Active”, the Activity [5] was “inactive” and the Activity [6] was “inactive”. For the same compound, the Activity [7] was “inactive”.
With `COc1cc(CCc2cc(NC(=O)c3ccc(N4C[C@@H](C)N(CC(=O)N/N=C\c5ccc(OCC(=O)N[C@H](C(=O)N6C[C@H](O)C[C@H]6C(=O)N[C@@H](C)c6ccc(-c7scnc7C)cc6)C(C)(C)C)cc5)[C@@H](C)C4)cc3)n[nH]2)cc(OC)c1` the Activity [1] was “Active”.
Work on `COc1cc(CCc2cc(NC(=O)c3ccc(N4C[C@@H](C)N(CC(=O)NCCc5ccc(OCC(=O)N[C@H](C(=O)N6C[C@H](O)C[C@H]6C(=O)N[C@@H](C)c6ccc(-c7scnc7C)cc6)C(C)(C)C)cc5)[C@@H](C)C4)cc3)n[nH]2)cc(OC)c1` yielded an IC50 [9] of 160 nM and an IC50 [10] of 139 nM.
With `COc1cc(CCc2cc(NC(=O)c3ccc(N4C[C@@H](C)N(CC(=O)N/N=C/c5ccc(OCCOCCOCCOCC(=O)N[C@H](C(=O)N6C[C@H](O)C[C@H]6C(=O)N[C@@H](C)c6ccc(-c7scnc7C)cc6)C(C)(C)C)cc5)[C@@H](C)C4)cc3)n[nH]2)cc(OC)c1` the Activity [1] was “Active”.
With `COc1cc(CCc2cc(NC(=O)c3ccc(N4C[C@@H](C)N[C@@H](C)C4)cc3)n[nH]2)cc(OC)c1` [FEXAGRATINIB] the IC50 [9] was 4 nM and the IC50 [10] was 14 nM.
For `COc1cc(CCc2cc(NC(=O)c3ccc(N4C[C@@H](C)N(CC(=O)N/N=C/c5ccc(OCCOCC(=O)NCC#Cc6cccc7c6CN(C6CCC(=O)NC6=O)C7=O)cc5)[C@@H](C)C4)cc3)n[nH]2)cc(OC)c1` (stereo not given in full), the Activity [2] was “Active”, the Activity [5] was “inactive” and the Activity [6] was “inactive”. The Activity [7] was “inactive”.
